Experimental findings from US20250382556A1, “MODULATION OF THE BRANCHED-CHAIN METABOLITE CONTENT OF FRUITS AND VEGETABLES” (BOARD OF TRUSTEES OF MICHIGAN STATE UNIVERSITY, priority 2024, published 2025) are described below.

The subject of the assay is flowering quince fruit. Nature of the assay: Headspace volatile emissions of flowering quince fruit treated with AHAS inhibitor. The assay is classed as in vivo, Chaenomeles x superba. The arrangement: key to butyl acetate emissions compared to control: —: Dash indicates no significant difference between treatments. Here is the method: Whole apple fruit, freshly harvested and at an early stage of ripening (‘ripening’), were held at room temperature (22° C.) and rubbed daily with 3 mL of a freshly made 1mM solution of the inhibitor rimsulfuron (N-((4,6-dimethoxypyrimidin-2-yl)aminocarbonyl)-3-(ethylsulfonyl)-2-pyridinesulfonamide, made from DuPont MATRIX® SG, 25% w/w active ingredient; 0.1% Tween 20) or water solution containing 0.1% Tween 20 before preparation with further treatments. Flowering quince fruit were smaller than the apple fruit and had 2 mL of the control and treatment solutions applied daily at 22° C. ‘Gala’, ‘Empire’, and ‘Jonagold’ apple fruit were treated for four, nine, and seven days before further preparation, respectively. Flowering quince fruit were treated for six days before analysis. Headspace volatile emissions were monitored for three or four representative fruits during the incubation/treatment period to determine appropriate times for further treatments. During method testing, 1 mM solutions of the imidazolinone imazamox was also assessed with apple fruit (2-[4,5-dihydro-4-methyl-4-(1-methylethyl)-5-oxo-1H-imidazol-2-yl]-5-(methoxymethyl)-3-pyridinecarboxylic acid, made from RAPTOR®, 12.1% w/w active ingredient; 0.1% Tween 20).
Headspace volatiles from small tissue samples incubated in 22 mL vials were adsorbed for 30 s using a solid-phase micro extraction (SPME) fiber (65 μm PDMS-DVB; Supelco Analytical). The SPME fiber was then directly desorbed for 1 min in the injection port of a gas chromatograph (GC; HP-6890, Hewlett-Packard) coupled to a time-of-flight mass spectrometer (MS; Pegasus II, LECO). Whole fruits and banana slices were incubated for 20 min at room temperature (22° C.) in 1-L sealed Teflon jars before a 15-s, or 3-min adsorption and 1- or 2-min desorption. Adsorption times were adjusted to ensure instrument responses were in the linear range. All desorbed volatiles were cryofocused at the beginning of the column by immersing said region of the column in liquid nitrogen. After the desorption period, the run was initiated and the liquid nitrogen removed.
The conditions of the system were as follows. Injection port: 200° C., splitless, ultra-purified helium (99.999%) carrier gas, front inlet flow 1.5 mL·min^−1 constant, 10 mL·min^−1 purge flow, 11.5 mL·min^−1 total flow. Oven: initial temperature 40° C. for 0 min, ramped by 43° C.·min^−1 to 185° C. for 0 min. Column: HP-5 MS, 30 m×0.25 mm i.d., 0.25 μm film thickness (Agilent). Transfer line temperature 225° C. MS: Electron ionization (−70 eV), ion source temperature 200° C., solvent delay 50 sec, m/z range 29 to 400, detector voltage 1500 V, data collection rate 20 Hz.
Compounds were identified by comparison of the retention time and mass spectrum against authenticated reference standards and spectra (National Institute of Standards and Technology Mass Spectral Search Program Version 2.0, 2001). Volatiles were quantified by calibration with a standard of 59 authenticated, high-purity compounds (Sigma-Aldrich Co. and Fluka Chemical) including the target compounds. The standard was made by placing 0.5 μL of an equal-part mixture of the neat compounds onto a disc of filter paper before quickly placing the filter paper into a 4-L sealed flask fitted with a Mininert valve (for SPME fiber access, and allowed to vaporize for at least 6 hours. SPME adsorption and desorption times of the standard matched that of the samples quantified (e.g., 30-s adsorption, 1 min desorption when quantifying samples in 22-mL vials).
Statistical analysis was performed using SciPy (v1.6.2), RStudio (v2023.03.0+386), or Microsoft Excel (v16.89). Against a specified value: one-tailed t-test Against two treatments: paired t-test for banana, two-sample t-test for apple and flowering quince. Against more than two treatments: Tukey's test following significant ANOVA. Analyses of branched-chain amino acids were one-tailed, all other metabolites were two-tailed. […]

Where [1] appears, read: Dr. Banks Pink flowering quince.
[2] abbreviates: Dr. Banks Pink flowering quince peel, 1 mM daily, six days.

With `CCS(=O)(=O)c1cccnc1S(=O)(=O)NC(=O)Nc1nc(OC)cc(OC)n1` [rimsulfuron, N-((4,6-dimethoxypyrimidin-2-yl)aminocarbonyl)-3-(ethylsulfonyl)-2-pyridinesulfonamide], under setting [1], the “butyl acetate, ethyl butanoate, estragole, or linalool versus untreated” value was “No difference”; the “less 2-methylpropyl acetate and 2-methylbutyl acetate than untreated fruits” value was determined as 94.6%; the “more propyl acetate than untreated fruits” value was determined as 22.7 fold. For the same compound, under setting [2], the “2-methylbutyl acetate (ile) emissions compared to control” value is 5.2 ± 3.9%, the “2-methylpropyl acetate (val) emissions compared to control” value stood at 1.1 ± 1.4%, the “butyl acetate emissions compared to control” value was “—” and the “propyl acetate emissions compared to control” value stood at 2265.0 ± 869.0%. Further, the “sum of anteiso- and iso-branched-chain esters emissions compared to control” value under setting [2] is recorded as 3.0 ± 2.4%.
